According to patent publication US20090069319A1, “IMIDAZOPYRIDINE ANALOGS AND THEIR USE AS AGONISTS OF THE WNT-BETA-CATENIN CELLULAR MESSAGING SYSTEM” (Wyeth, priority 2007, published 2009):

Experiments:
[1] = system: canonical Wnt-β-catenin cellular messaging system (16xTCF-TK-FireFly-Luci reporter, Wnt3a and Dkk1 co-transfected U2OS cells); assay: Functional Dkk1-LRP5-TCF-Luciferase Assay in U2OS Cells (table columns: A=MAX FOLD Induction/DMSO CONTROL; B=fold induction @ 2.0 uM; C=fold induction @ 20.0 uM); type: cell-based, Human; conditions: maximum fold induction over DMSO control
Method in brief: (§1)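 U2OS cells co-transfected with 16×TCF-TK-firefly luciferase, TK-Renilla control, Wnt3a and Dkk1, then frozen; thawed cells (~5,000/well, ~5% FBS, phenol red-free RPMI) incubated ~20 h at 37° C. with compound (0.25% DMSO). Firefly luminescence (Bright-Glo) normalized to DMSO mean as fold induction.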

[2] = as above; type: cell-based, Human; conditions: Homo sapiens; for fold induction at 2 µM / fold induction at 20 µM: U2OS; for fold induction at 2 µM: 2.0 uM compound; for fold induction at 20 µM: 20.0 uM compound; for EC50: U2OS cells, TCF-luciferase reporter
Method in brief: as §1

Row | A = MAX FOLD Induction/DMSO CONTROL [1] | EC50 [2] | Compound | fold induction at 2 µM [2] | fold induction at 20 µM [2]
1 | 2.470 | – | Cn1cccc1-c1nc2cc(-c3ccc4ccccc4c3)cnc2n1C1CCNCC1 [2-(1-methyl-1H-pyrrol-2-yl)-6-(2-naphthyl)-3-piperidin-4-yl-3H-imidazo[4,5-b]pyridine] | – | –
2 | 1.160 | – | Clc1ccc(-c2nc3cc(-c4ccc5ccccc5c4)cnc3n2C2CCNCC2)cc1 [2-(4-chlorophenyl)-6-(2-naphthyl)-3-piperidin-4-yl-3H-imidazo[4,5-b]pyridine] | – | –
3 | 1.430 | – | Oc1cccc(-c2nc3cc(-c4ccc5ccccc5c4)cnc3n2C2CCNCC2)c1O [3-[6-(2-naphthyl)-3-piperidin-4-yl-3H-imidazo[4,5-b]pyridin-2-yl]benzene-1,2-diol] | – | –
4 | 1.460 | – | c1ccc2cc(-c3cnc4c(c3)nc(-c3ccc5c(c3)OCCO5)n4C3CCNCC3)ccc2c1 [2-(2,3-dihydro-1,4-benzodioxin-6-yl)-6-(2-naphthyl)-3-piperidin-4-yl-3H-imidazo[4,5-b]pyridine] | – | –
5 | 1.710 | – | Oc1ccc(-c2nc3cc(-c4ccc5ccccc5c4)cnc3n2C2CCNCC2)cc1 [4-[6-(2-naphthyl)-3-piperidin-4-yl-3H-imidazo[4,5-b]pyridin-2-yl]phenol] | – | –
6 | 1.380 | – | Oc1ccccc1-c1nc2cc(-c3ccc4ccccc4c3)cnc2n1C1CCNCC1 [2-[6-(2-naphthyl)-3-piperidin-4-yl-3H-imidazo[4,5-b]pyridin-2-yl]phenol] | – | –
7 | 1.870 | – | Cc1nc[nH]c1-c1nc2cc(-c3ccc4ccccc4c3)cnc2n1C1CCNCC1 [2-(4-methyl-1H-imidazol-5-yl)-6-(2-naphthyl)-3-piperidin-4-yl-3H-imidazo[4,5-b]pyridine] | – | –
8 | 1.350 | – | COc1ccc(-c2nc3cc(-c4ccc5ccccc5c4)cnc3n2C2CCNCC2)cc1 [2-(4-methoxyphenyl)-6-(2-naphthyl)-3-piperidin-4-yl-3H-imidazo[4,5-b]pyridine] | – | –
9 | 1.460 | – | CC(=O)Nc1ccc(-c2nc3cc(-c4ccc5ccccc5c4)cnc3n2C2CCNCC2)cc1 [N-{4-[6-(2-naphthyl)-3-piperidin-4-yl-3H-imidazo[4,5-b]pyridin-2-yl]phenyl}acetamide] | – | –
10 | 2.720 | – | Cn1ccnc1-c1nc2cc(-c3ccc4ccccc4c3)cnc2n1C1CCNCC1 [2-(1-methyl-1H-imidazol-2-yl)-6-(2-naphthyl)-3-piperidin-4-yl-3H-imidazo[4,5-b]pyridine] | – | –
11 | 1.290 | – | C=Cc1cccc(-c2nc3cc(-c4ccc5ccccc5c4)cnc3n2C2CCNCC2)c1 [6-(2-naphthyl)-3-piperidin-4-yl-2-(3-vinylphenyl)-3H-imidazo[4,5-b]pyridine] | – | –
12 | 1.360 | – | FC(F)(F)c1ccccc1-c1nc2cc(-c3ccc4ccccc4c3)cnc2n1C1CCNCC1 [6-(2-naphthyl)-3-piperidin-4-yl-2-[2-(trifluoromethyl)phenyl]-3H-imidazo[4,5-b]pyridine] | – | –

More lines, now with the values behind:

Row | Compound | A = MAX FOLD Induction/DMSO CONTROL [1] | EC50 [2] | fold induction at 2 µM [2] | fold induction at 20 µM [2]
13 | Cc1nc2c(-c3ccc4ccccc4c3)ccnc2n1[C@H]1CCCNC1 [2-methyl-7-(2-naphthyl)-3-[(3S)-piperidin-3-yl]-3H-imidazo[4,5-b]pyridine] | 1.910 | – | 2.12 | 0.02
14 | Cc1nc2c(-c3ccc4ccccc4c3)ccnc2n1C1CCNCC1 [2-methyl-7-(2-naphthyl)-3-piperidin-4-yl-3H-imidazo[4,5-b]pyridine] | 3.215 | 895 nM | 2.84 | –
15 | c1ccc2cc(-c3ccnc4c3ncn4[C@H]3CCCNC3)ccc2c1 [7-(2-naphthyl)-3-[(3S)-piperidin-3-yl]-3H-imidazo[4,5-b]pyridine] | 2.303 | 18 nM | 1.02 | 0.01
16 | Cc1nc2c(-c3ccc4ccccc4c3)ccnc2n1[C@@H]1CCCNC1 [2-methyl-7-(2-naphthyl)-3-[(3R)-piperidin-3-yl]-3H-imidazo[4,5-b]pyridine] | 3.570 | 2680 nM | 2.74 | 0.05
17 | CN(C)C(=O)N1CCC(n2cnc3c(-c4ccc5ccccc5c4)ccnc32)CC1 [N,N-dimethyl-4-[7-(2-naphthyl)-3H-imidazo[4,5-b]pyridin-3-yl]piperidine-1-carboxamide] | 1.080 | – | 1.94 | 2.09
18 | O=C1OC2(c3ccc(O)cc3Oc3cc(O)ccc32)c2ccc(NC(=S)N3CCC(n4cnc5c(-c6ccc7ccccc7c6)ccnc54)CC3)cc21 [N-(3′,6′-dihydroxy-3-oxo-3H-spiro[2-benzofuran-1,9′-xanthen]-5-yl)-4-[7-(2-naphthyl)-3H-imidazo[4,5-b]pyridin-3-yl]piperidine-1-carbothioamide] | 12.158 | 10700 nM | 1.4 | 6.49
19 | c1ccc2cc(-c3ccnc4c3ncn4[C@H]3CCNC3)ccc2c1 [7-(2-naphthyl)-3-[(3S)-pyrrolidin-3-yl]-3H-imidazo[4,5-b]pyridine] | 2.780 | – | 2.1 | 0.44
20 | CC(=O)Nc1ccc(-c2nc3c(-c4ccc5ccccc5c4)ccnc3n2C2CCNCC2)cc1 [N-{4-[7-(2-naphthyl)-3-piperidin-4-yl-3H-imidazo[4,5-b]pyridin-2-yl]phenyl}acetamide] | 1.710 | – | 1.99 | –
21 | Fc1ccc(-c2nc3c(-c4ccc5ccccc5c4)ccnc3n2C2CCNCC2)cc1 [2-(4-fluorophenyl)-7-(2-naphthyl)-3-piperidin-4-yl-3H-imidazo[4,5-b]pyridine] | 1.370 | – | 2.07 | –
22 | Cc1ccc(CCn2cnc3c(-c4ccc5ccccc5c4)ccnc32)cc1 [3-[2-(4-methylphenyl)ethyl]-7-(2-naphthyl)-3H-imidazo[4,5-b]pyridine] | – | – | 0.76 | 0.98
23 | Cn1ccnc1-c1nc2c(-c3ccc4ccccc4c3)ccnc2n1C1CCNCC1 [2-(1-methyl-1H-imidazol-2-yl)-7-(2-naphthyl)-3-piperidin-4-yl-3H-imidazo[4,5-b]pyridine] | – | – | 1.84 | –
24 | c1csc(-c2nc3cc(-c4ccc5ccccc5c4)cnc3n2C2CCNCC2)c1 [6-(2-naphthyl)-3-piperidin-4-yl-2-(2-thienyl)-3H-imidazo[4,5-b]pyridine] | – | – | 1.04 | –
25 | Cc1cc(-c2nc3c(-c4ccc5ccccc5c4)ccnc3n2C2CCNCC2)oc1C [2-(4,5-dimethyl-2-furyl)-7-(2-naphthyl)-3-piperidin-4-yl-3H-imidazo[4,5-b]pyridine] | – | – | 1.54 | –
26 | O=[N+]([O-])c1ccc(-c2nc3c(-c4ccc5ccccc5c4)ccnc3n2C2CCNCC2)cc1 [7-(2-naphthyl)-2-(4-nitrophenyl)-3-piperidin-4-yl-3H-imidazo[4,5-b]pyridine] | – | – | 1.42 | –
27 | O=C(N1CCOCC1)N1CCC(n2c(=O)[nH]c3c(-c4ccc5ccccc5c4)ccnc32)CC1 [3-[1-(morpholin-4-ylcarbonyl)piperidin-4-yl]-7-(2-naphthyl)-1,3-dihydro-2H-imidazo[4,5-b]pyridin-2-one] | – | – | 1.33 | 1.02
28 | Cc1ccc(-c2nc3cc(-c4ccc5ccccc5c4)cnc3n2C2CCNCC2)cc1 [2-(4-methylphenyl)-6-(2-naphthyl)-3-piperidin-4-yl-3H-imidazo[4,5-b]pyridine] | – | – | 1 | –
29 | COc1cc(-c2nc3c(-c4ccc5ccccc5c4)ccnc3n2C2CCNCC2)ccc1O [2-methoxy-4-[7-(2-naphthyl)-3-piperidin-4-yl-3H-imidazo[4,5-b]pyridin-2-yl]phenol] | – | – | 1.63 | 0.01
30 | Cc1ccc(-c2nc3cc(-c4ccc5ccccc5c4)cnc3n2C2CCNCC2)o1 [2-(5-methyl-2-furyl)-6-(2-naphthyl)-3-piperidin-4-yl-3H-imidazo[4,5-b]pyridine] | – | – | 1.23 | –
31 | O=[N+]([O-])c1ccccc1-c1nc2c(-c3ccc4ccccc4c3)ccnc2n1C1CCNCC1 [7-(2-naphthyl)-2-(2-nitrophenyl)-3-piperidin-4-yl-3H-imidazo[4,5-b]pyridine] | – | – | 1.14 | –
32 | Cc1ccc(-c2nc3c(-c4ccc5ccccc5c4)ccnc3n2C2CCNCC2)o1 [2-(5-methyl-2-furyl)-7-(2-naphthyl)-3-piperidin-4-yl-3H-imidazo[4,5-b]pyridine] | – | – | 1.17 | –
33 | Fc1cccc(-c2nc3c(-c4ccc5ccccc5c4)ccnc3n2C2CCNCC2)c1F [2-(2,3-difluorophenyl)-7-(2-naphthyl)-3-piperidin-4-yl-3H-imidazo[4,5-b]pyridine] | – | – | 1.9 | –
34 | FC(F)(F)Oc1ccc(-c2nc3c(-c4ccc5ccccc5c4)ccnc3n2C2CCNCC2)cc1 [7-(2-naphthyl)-3-piperidin-4-yl-2-[4-(trifluoromethoxy)phenyl]-3H-imidazo[4,5-b]pyridine] | – | – | 1.51 | –
35 | O=[N+]([O-])c1cccc(-c2nc3c(-c4ccc5ccccc5c4)ccnc3n2C2CCNCC2)c1 [7-(2-naphthyl)-2-(3-nitrophenyl)-3-piperidin-4-yl-3H-imidazo[4,5-b]pyridine] | – | – | 1.29 | –
36 | c1ccc(Oc2cccc(-c3nc4c(-c5ccc6ccccc6c5)ccnc4n3C3CCNCC3)c2)cc1 [7-(2-naphthyl)-2-(3-phenoxyphenyl)-3-piperidin-4-yl-3H-imidazo[4,5-b]pyridine] | – | – | 1.4 | –
37 | CCCCc1nc2c(-c3ccc4ccccc4c3)ccnc2n1C1CCNCC1 [2-butyl-7-(2-naphthyl)-3-piperidin-4-yl-3H-imidazo[4,5-b]pyridine] | – | – | 1.19 | –
